In this experiment the test system is MDA-MB-468 cells. Briefly: SubG1 population by flow cytometry. Type of experiment: cell-based, human. The following applies: 10 μM, 48 h. The method, then: FIG. 29 illustrates the time-course of a Sigma1 antagonist inducing apoptotic cell death of breast adenocarcinoma cells. Treatment with Sigma1 antagonist, IPAG, induces apoptotic cell death of MDA-MB-468 cells, as indicated by the percentage of subG1 phase cells. […] The far left panel represents cells treated or 24 hours with DMSO (vehicle control).
FIG. 37, comprising FIGS. 37A-37D, illustrates that inhibition of autophagy accelerates and/or potentiates Sigma1 antagonist induced apoptosis. FIG. 37A is a graph illustrating the time-course of Sigma antagonist-induced cell death as measured by flow cytometry. MDA-MB-468 cells were treated with DMSO (control), 10 μM IPAG (antagonist), or 10 μM PRE084 (agonist), fixed and stained with propidium iodide for DNA content analysis. The subG1 population was quantified and used as a measure of cell death. Data are from 4 independent determinations. FIG. 37B is an image of a Western blot of caspase 3 (Asp175) cleavage. IPAG induced apoptotic cell death occurred at the 48 hour treatment time point. FIG. 37C is a graph illustrating DA-MB-468 cells treated for 24 hours with a combination of IPAG (10 μM) and autophagy inhibitor 3-methyladenine (3-MA, 5 mM). Cell death was measured by trypan blue exclusion. […] For FIGS. 37A-37C, statistical significance was determined by two-way ANOVA followed by Bonferroni post-test, ***P<0.001.
(A flow cytometer gives signals particle by particle.)

SMILES strings stand for the structures.

Turning to `N=C(Nc1ccc(I)cc1)NC1C2CC3CC(C2)CC1C3` (stereo not shown) [IPAG, 1-(4-iodophenyl)-3-(2-adamantyl)guanidine], the “subG1 (dead, apoptotic) cells” value amounted to 31.7%.

Values taken from patent US9388126B2, “Sigma receptor ligands and methods of modulating cellular protein homeostasis using same” (Drexel University, priority 2012, dated 2016).
